Test results taken from the supplement of paper PMC10307832.

Experiments:
Assay in all cases: relative viability (nuclei count vs DMSO), 5 days (fraction); higher = more cells survive
[1] = compound: COc1cc2/c(=N/c3ccc(Br)cc3F)nc[nH]c2cc1OCC1CCN(C)CC1 [Vandetanib] + O=C(CCCCCCC(=O)Nc1ccccc1)NO [Vorinostat] (partner 1 µM)
Outline: (§1)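 Relative viability is defined as nuclei in treated wells over nuclei in vehicle wells. Duplicate plates were run and medians reported. Lung cancer cell lines in 1536-well plates were dosed by pin tool one day after seeding, with one drug or with a fixed anchor-drug dose plus five library-drug doses (not always all listed) in √10 steps, and nuclei were counted after 5 days.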

[2] = compound: COc1cc(N2CCC(N3CCN(C)CC3)CC2)ccc1Nc1ncc(Cl)c(Nc2ccccc2S(=O)(=O)C(C)C)n1 [NVP-TAE684] + Nc1nc2[nH]cc(CCc3ccc(C(=O)N[C@@H](CCC(=O)O)C(=O)O)cc3)c2c(=O)[nH]1 [Pemetrexed] (partner 0.2 µM)
Outline: as §1

[3] = compound: C#Cc1cccc(Nc2ncnc3cc(OC)c(OCCCCCCC(=O)NO)cc23)c1 [CUDC-101]
Outline: (§2)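 After an overnight hold at 37 °C, lung cancer cell lines in 1536-well plates were pinned with five library-drug doses (not always all listed), each √10 from the next, on vehicle-anchored plates. The cells stayed 5 days without fresh medium, then a one-step fix, permeabilisation and Hoechst stain preceded 4× imaging and MetaXpress nuclear counts. A plate passed only with control CV under 25% and at least one doubling. Viability is the median, over plates, of treated-well nuclei relative to vehicle-well nuclei.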

[4] = compound: C1=CC=C2C(=C1)N=C(S2)C(C#N)C3=NC(=NC=C3)NCCC4=CN=CC=C4
Outline: as §2

Cell Line	relative viability ([1]; first compound 0.02 µM)	relative viability ([1]; first compound 0.06325 µM)	relative viability ([1]; first compound 0.2 µM)	relative viability ([1]; first compound 0.6325 µM)	relative viability ([1]; first compound 2 µM)	relative viability ([2]; first compound 0.2 µM)	relative viability ([2]; first compound 0.6325 µM)	relative viability ([2]; first compound 2 µM)	relative viability ([3]; 0.01 µM)	relative viability ([3]; 0.03162 µM)	relative viability ([3]; 0.1 µM)	relative viability ([3]; 0.3162 µM)	relative viability ([3]; 1 µM)	relative viability ([4]; 0.005 µM)	relative viability ([4]; 0.01581 µM)	relative viability ([4]; 0.05 µM)	relative viability ([4]; 0.1581 µM)	relative viability ([4]; 0.5 µM)
201T	0.886	0.876	0.959	0.904	0.957	0.334	0.332	0.323	0.984	0.97	0.964	1.03	0.829	0.963	0.876	1.01	1.03	0.89
A549	–	–	–	–	–	–	–	–	1.04	0.967	1	1.04	0.799	0.914	1.03	0.969	1.05	0.901
A-427	0.809	0.85	0.903	0.842	0.911	–	0.914	0.788	1.02	0.978	0.949	0.932	0.738	0.993	0.875	0.919	1.15	0.95
ABC-1	1.05	1.11	1.02	0.96	0.773	–	–	–	0.95	0.978	0.938	0.812	0.453	0.974	0.826	1.08	1.07	0.835
BEN	0.6	0.56	0.613	0.552	0.569	0.843	0.728	0.682	1.11	0.833	1.06	0.856	0.708	0.864	0.908	0.97	1.04	1.08
CAL-12T	0.724	0.549	0.67	0.759	0.415	0.973	1.16	0.492	1.16	1.03	0.993	1.05	0.951	1	0.912	0.962	1.07	0.798
COR-L23	0.427	0.406	0.463	0.451	0.516	0.205	0.203	0.197	1.11	0.99	1.05	0.974	0.641	0.944	1.13	1.05	1.2	0.884
COR-L 105	0.922	0.807	0.829	0.822	0.537	1.01	0.98	–	0.951	1.01	0.815	0.906	0.482	0.8	0.711	0.774	0.941	0.768
Calu-6	–	–	–	–	–	–	–	–	1.03	0.998	0.979	0.993	0.857	0.999	0.983	0.978	1.12	0.912
ChaGo-K-1	0.735	0.765	0.767	0.797	0.798	0.273	0.246	0.264	0.923	0.965	1.02	1.06	0.787	0.984	0.929	0.99	1.05	0.939
EBC-1	–	–	–	–	–	–	–	–	1	0.89	0.975	0.785	0.582	1.02	1.15	0.803	1.06	0.858
EKVX	0.727	0.697	0.732	0.776	0.382	0.376	0.337	0.254	1.02	1.04	0.883	1.1	0.772	1.08	0.939	0.947	1.04	0.952
EMC-BAC-2	0.506	0.469	0.431	0.5	0.369	0.429	0.405	0.433	1.05	0.966	1.13	0.9	0.616	1.09	0.976	0.952	1.04	0.97
EPLC-272H	0.41	0.466	0.447	0.441	0.447	0.425	0.297	0.15	1.04	0.9	0.838	0.79	0.418	0.915	0.882	0.958	1.11	0.895
H3255	0.763	0.704	0.808	0.507	0.644	0.531	0.519	0.449	1	0.912	0.454	0.658	0.273	1.04	0.922	0.964	1.06	0.981
HARA	0.496	0.477	0.521	0.616	0.524	0.262	0.211	0.233	1.01	0.942	0.774	0.861	0.39	1.1	0.769	0.994	1.09	0.93
HCC-15	0.832	0.796	0.782	0.89	0.816	0.245	0.204	0.182	0.969	0.989	1.01	1.11	0.897	0.96	0.989	1.03	1.12	0.919

Cell Line	relative viability ([1]; first compound 0.02 µM)	relative viability ([1]; first compound 0.06325 µM)	relative viability ([1]; first compound 0.2 µM)	relative viability ([1]; first compound 0.6325 µM)	relative viability ([1]; first compound 2 µM)	relative viability ([2]; first compound 0.2 µM)	relative viability ([2]; first compound 0.6325 µM)	relative viability ([2]; first compound 2 µM)	relative viability ([3]; 0.01 µM)	relative viability ([3]; 0.03162 µM)	relative viability ([3]; 0.1 µM)	relative viability ([3]; 0.3162 µM)	relative viability ([3]; 1 µM)	relative viability ([4]; 0.005 µM)	relative viability ([4]; 0.01581 µM)	relative viability ([4]; 0.05 µM)	relative viability ([4]; 0.1581 µM)	relative viability ([4]; 0.5 µM)
HCC-44	1.11	1.09	1.21	1.1	1.15	0.652	–	0.606	0.858	1.03	1.02	0.951	0.968	0.999	1.03	1.04	1.05	1
HCC-78	0.5	0.481	0.418	0.505	0.346	0.886	0.912	0.93	1.01	0.918	0.954	0.809	0.416	1.08	0.92	1.07	1.07	0.996
HCC-366	0.277	0.326	0.278	0.31	0.438	0.197	0.178	0.227	1.03	0.997	1.01	1.03	0.931	0.883	1.06	0.995	1.05	1.05
HCC-827	0.788	0.82	0.815	0.369	0.327	0.259	0.262	0.261	1.08	0.709	0.247	0.198	0.192	1.07	1.1	1.01	1.11	1.05
HOP-62	0.553	0.574	0.651	0.686	0.811	0.34	0.392	0.345	0.971	1.07	1.06	1	0.941	0.951	1.08	1.01	1.24	1.07
IA-LM	1.06	0.969	0.935	1.06	0.874	–	–	–	1.01	0.861	1.06	0.879	0.697	0.834	1.19	0.997	1.02	0.762
LC-2-ad	0.686	0.673	0.714	0.709	0.462	0.241	0.269	0.232	1.01	0.989	1.03	0.963	0.758	0.923	0.9	0.999	1.11	0.961
LCLC-97TM1	0.711	0.755	0.719	0.559	0.755	0.184	0.144	0.114	1.05	0.917	1.06	1.02	0.832	0.944	0.991	0.974	1.13	1.08
LCLC-103H	0.756	0.759	0.822	0.755	0.814	0.473	0.48	0.478	0.987	1.01	1.06	1.05	0.926	0.928	0.952	0.955	1.07	0.947
LK-2	0.31	0.311	0.341	0.265	0.365	0.271	0.229	0.175	1.09	0.978	0.948	0.885	0.546	0.753	1.11	0.97	1.21	1.07
NCI-H727	1.11	1.18	1.13	1.26	0.992	–	–	–	0.954	0.869	1.04	0.827	0.629	0.904	0.903	0.832	1.13	0.78
NCI-H1299	–	–	–	–	–	–	–	–	1.01	0.998	1.02	1.01	0.919	1.06	1.05	0.95	1.06	0.974
NCI-H1563	–	–	–	–	–	0.757	0.692	0.654	0.968	0.869	1.06	0.917	0.893	0.778	0.944	0.899	0.995	0.946
NCI-H1623	–	–	–	–	–	–	–	–	1.11	0.858	0.82	0.813	0.552	0.981	1.01	0.837	0.96	0.846
NCI-H1703	–	–	–	–	–	–	–	–	0.997	0.743	1.1	1.19	0.904	0.814	0.841	0.782	0.889	1.14
NCI-H1792	–	–	–	–	–	0.773	0.799	0.799	0.928	0.896	0.853	1.04	0.809	–	0.747	0.924	1.2	0.693
